# Source: patent US10233184B2, “7-substituted sulfonimidoylpurinone compounds and derivatives for the treatment and prophylaxis of virus infection” (Hoffmann-La Roche Inc., priority 2016, dated 2019)
# Target: T1, human TLR7 (Homo sapiens, UniProt Q9NYK1)
# T1 sequence (Q9NYK1 27-1049): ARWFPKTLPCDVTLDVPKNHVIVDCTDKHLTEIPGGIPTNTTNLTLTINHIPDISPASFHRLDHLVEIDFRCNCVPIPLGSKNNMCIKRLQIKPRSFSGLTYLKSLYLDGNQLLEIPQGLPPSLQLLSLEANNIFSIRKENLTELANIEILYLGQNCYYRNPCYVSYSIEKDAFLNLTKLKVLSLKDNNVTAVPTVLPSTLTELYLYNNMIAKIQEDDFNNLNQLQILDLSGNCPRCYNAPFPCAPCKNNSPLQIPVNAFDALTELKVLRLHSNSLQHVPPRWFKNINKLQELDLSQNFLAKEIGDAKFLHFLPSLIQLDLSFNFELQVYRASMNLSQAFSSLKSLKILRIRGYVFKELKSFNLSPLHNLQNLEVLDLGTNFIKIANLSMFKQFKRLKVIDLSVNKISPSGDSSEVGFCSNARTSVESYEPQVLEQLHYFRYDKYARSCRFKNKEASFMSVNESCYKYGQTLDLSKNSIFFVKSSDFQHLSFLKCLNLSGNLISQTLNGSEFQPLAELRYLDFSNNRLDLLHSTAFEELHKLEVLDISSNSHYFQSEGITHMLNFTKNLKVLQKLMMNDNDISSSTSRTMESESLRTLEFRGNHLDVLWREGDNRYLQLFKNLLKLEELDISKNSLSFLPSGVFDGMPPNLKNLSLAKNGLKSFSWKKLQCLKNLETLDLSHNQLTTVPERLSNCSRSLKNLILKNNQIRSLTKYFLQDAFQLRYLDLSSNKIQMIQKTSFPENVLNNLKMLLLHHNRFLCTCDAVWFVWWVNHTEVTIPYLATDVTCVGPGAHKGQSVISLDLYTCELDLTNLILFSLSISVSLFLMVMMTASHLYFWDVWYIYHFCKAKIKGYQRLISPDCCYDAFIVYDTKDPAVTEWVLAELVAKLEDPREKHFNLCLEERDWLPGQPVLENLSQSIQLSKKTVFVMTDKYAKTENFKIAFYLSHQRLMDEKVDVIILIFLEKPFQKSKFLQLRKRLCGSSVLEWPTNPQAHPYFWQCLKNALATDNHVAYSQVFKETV
# Assay: HEK293-Blue-hTLR-7 cells assay (SEAP reporter)
# Format: cell-based
# Settings: for Ratio (EC50(prodrug)/EC50(active form)): EC50 of prodrug over EC50 of corresponding active form; for EC50: HEK293-Blue-hTLR-7 cells, SEAP reporter, 20 hrs, prodrug, read-out: HEK293-hTLR-7 EC50 (Prodrug)
# Summary of the method: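 HEK293-Blue-hTLR7 cells with NF-κB/AP-1-driven SEAP reporter exposed to serially diluted compound (1% DMSO) for 20 hrs at 37° C. Supernatant SEAP measured with QUANTI-Blue after 2 hrs at 37° C, absorbance 620~655 nm; agonism expressed as EC50.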
Compound,Ratio (EC50(prodrug)/EC50(active form)),EC50 [µM]
"CCCN(C)C(=O)n1c(=O)n(Cc2ccc(Cl)cc2)c2nc([S@](=N)(=O)CC)nc(N)c21 [Example 41-A, 6-Amino-9-[(4-chlorophenyl)methyl]-2-[S(R)-ethylsulfonimidoyl]-N-methyl-8-oxo-N-propyl-purine-7-carboxamide]",518.8,44.1
"CCCN(C)C(=O)n1c(=O)n(Cc2ccc(Cl)cc2)c2nc([S@@](=N)(=O)CC)nc(N)c21 [Example 41-B, 6-Amino-9-[(4-chlorophenyl)methyl]-2-[S(S)-ethylsulfonimidoyl]-N-methyl-8-oxo-N-propyl-purine-7-carboxamide]",452.1,32.1
"CCN(C)C(=O)n1c(=O)n(Cc2ccc(Cl)cc2)c2nc([S@@](=N)(=O)CC)nc(N)c21 [Example 42-A, 6-Amino-9-[(4-chlorophenyl)methyl]-N-ethyl-2[S(S)-ethylsulfonimidoyl]-N-methyl-8-oxo-purine-7-carboxamide]",570.4,40.5
"CCCN(C)C(=O)n1c(=O)n(Cc2ccc(C)cc2)c2nc([S@](=N)(=O)CC)nc(N)c21 [Example 43-A, 6-Amino-2-[S(R)-ethylsulfonimidoyl]-N-methyl-8-oxo-N-propyl-9-(p-tolylmethyl)purine-7-carboxamide]",1000,110
